Measurements from ChEMBL document CHEMBL1142166, “Inhibition of antiassociation activity of translation initiation factor 3 by paromomycin” (2007).
Calls of active or inactive are those of the source. The rule behind the calls is not given here.

Key:
Escherichia coli [1] = assay: Association of ribosome subunits into 70S ribosome of Escherichia coli MRE600 assessed upto 20 uM in the presence of 1 mM Mg2+; assay type: functional
[2] = target: T1, Translation initiation factor IF-3 (Escherichia coli K-12) (UniProt P0A707); assay: Inhibition of Escherichia coli XL1-Blue IF3 antiassociation activity at 0.1 uM in the presence of 8.2 mM Mg2+
T1 sequence (whole entry): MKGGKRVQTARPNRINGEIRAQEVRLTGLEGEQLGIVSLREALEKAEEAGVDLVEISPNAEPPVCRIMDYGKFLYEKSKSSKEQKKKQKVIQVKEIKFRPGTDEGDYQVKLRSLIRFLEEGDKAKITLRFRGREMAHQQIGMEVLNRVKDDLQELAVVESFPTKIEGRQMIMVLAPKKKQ

[3] = target: T1, Translation initiation factor IF-3 (Escherichia coli K-12); assay: Inhibition of Escherichia coli XL1-Blue IF3 binding to 30S subunit at 100 uM in presence of 8.2 mm Mg2+
Escherichia coli [4] = assay: Association of ribosome subunits into 70S ribosome of Escherichia coli MRE600 in presence of 4 mM Mg2+; assay type: functional
Escherichia coli [5] = assay: Association of ribosome subunits into 70S ribosome of Escherichia coli MRE600 at 0.1 mM in presence of 4 mM Mg2+; assay type: functional
Escherichia coli [6] = assay: Association of ribosome subunits into 70S ribosome of Escherichia coli MRE600 in presence of 6 mM Mg2+; assay type: functional
Escherichia coli [7] = assay: Association of ribosome subunits into 70S ribosome of Escherichia coli MRE600 assessed above 20 uM in the presence of 1 mM Mg2+; assay type: functional, organism-based

Structure (SMILES): NC[C@@H]1O[C@H](O[C@H]2[C@@H](O)[C@H](O[C@@H]3[C@@H](O)[C@H](N)C[C@H](N)[C@H]3O[C@H]3O[C@H](CO)[C@@H](O)[C@H](O)[C@H]3N)O[C@@H]2CO)[C@H](N)[C@@H](O)[C@@H]1O [PAROMOMYCIN]
- Activity (Escherichia coli [1]): 50%
- Activity [2]: Active
- Activity [3]: inactive
- Activity (Escherichia coli [4]): 40%
- Activity (Escherichia coli [5]): 70%
- Activity (Escherichia coli [6]): 55%
- Activity (Escherichia coli [7]): inactive
